Holding throughout (assay type): functional
Conditions in all cases: read-out: GI

Assay [1] deals with Candida albicans. Description: Antifungal activity against Candida albicans ATCC 10231 assessed as inhibition of fungal growth at 25 uM.
Assay [2] concerns Candida albicans. Briefly: Antifungal activity against Candida albicans ATCC 10231 assessed as inhibition of fungal growth at 100 uM.
The subject of assay [3] is Candida albicans. Description: Antifungal activity against Candida albicans ATCC 10231 assessed as inhibition of fungal growth at 12.5 uM.
The test system of assay [4] is Candida albicans. Briefly: Antifungal activity against Candida albicans ATCC 10231 assessed as inhibition of fungal growth at 200 uM.
For assay [5], the system named is Cryptococcus neoformans. Description: Antifungal activity against Cryptococcus neoformans ATCC 32264 assessed as inhibition of fungal growth at 25 uM.
For assay [6], the system named is Candida albicans. Briefly: Antifungal activity against Candida albicans ATCC 10231 assessed as inhibition of fungal growth at 6.25 uM.
Assay [7] relates to Cryptococcus neoformans. Briefly: Antifungal activity against Cryptococcus neoformans ATCC 32264 assessed as inhibition of fungal growth at 100 uM.
Assay [8] has as its system Cryptococcus neoformans. Briefly: Antifungal activity against Cryptococcus neoformans ATCC 32264 assessed as inhibition of fungal growth at 50 uM.
For assay [9], the system named is Cryptococcus neoformans. Description: Antifungal activity against Cryptococcus neoformans ATCC 32264 assessed as inhibition of fungal growth at 200 uM.
The test system of assay [10] is Cryptococcus neoformans. Description: Antifungal activity against Cryptococcus neoformans ATCC 32264 assessed as inhibition of fungal growth at 6.25 uM.
In assay [11] the test system is Cryptococcus neoformans. Briefly: Antifungal activity against Cryptococcus neoformans ATCC 32264 assessed as inhibition of fungal growth at 12.5 uM.
The subject of assay [12] is Candida albicans. Description: Antifungal activity against Candida albicans ATCC 10231 assessed as inhibition of fungal growth at 50 uM.

The values below come from ChEMBL document CHEMBL1208760, “New antifungal peptides. Synthesis, bioassays and initial structure prediction by CD spectroscopy” (2010).

Turning to `CC[C@H](C)[C@H](NC(=O)[C@H](CCCCN)NC(=O)[C@@H](NC(=O)[C@H](CCC(N)=O)NC(=O)[C@H](CCCNC(=N)N)NC(=O)[C@H](Cc1c[nH]c2ccccc12)NC(=O)[C@H](CCCNC(=N)N)NC(=O)[C@H](Cc1ccccc1)NC(=O)[C@@H](N)Cc1cnc[nH]1)[C@@H](C)CC)C(=O)N[C@@H](Cc1c[nH]c2ccccc12)C(=O)N[C@@H](Cc1ccccc1)C(=O)N[C@@H](CCC(N)=O)C(=O)N[C@@H](CC(N)=O)C(=O)N[C@@H](CCCNC(=N)N)C(=O)N[C@@H](CCCNC(=N)N)C(=O)N[C@@H](CCSC)C(=O)N[C@@H](CCCCN)C(=O)N[C@@H](Cc1c[nH]c2ccccc12)C(=O)N[C@@H](CCCCN)C(=O)N[C@@H](CCCCN)C(N)=O`, the inhibition of growth at 25 µM with Candida albicans [1] amounted to 4.86%; in the assay on Cryptococcus neoformans [5], 85.9%. The inhibition of growth at 100 µM in the assay with Candida albicans [2] and in the assay on Cryptococcus neoformans [7] was 100% throughout. In addition, the inhibition of growth at 12.5 µM came to 3.85% in the assay with Candida albicans [3] and 74.3% in the assay with Cryptococcus neoformans [11]. Besides, the inhibition of growth at 200 µM in the assay on Candida albicans [4] and in the assay with Cryptococcus neoformans [9] was 100% each time. For the same molecule, the inhibition of growth at 6.25 µM stood at 0.9% in the assay on Candida albicans [6] and 51% in the assay with Cryptococcus neoformans [10]. The inhibition of growth at 50 µM in the assay on Cryptococcus neoformans [8] stood at 87.3%; in the assay with Candida albicans [12] it was 93.4%.

Consider `CC[C@H](C)[C@H](NC(=O)[C@H](CCCCN)NC(=O)[C@@H]1CCCN1C(=O)[C@H](CCC(N)=O)NC(=O)[C@@H](N)CCCNC(=N)N)C(=O)N[C@H](Cc1c[nH]c2ccccc12)C(=O)N[C@@H](Cc1ccccc1)C(=O)N1CCC[C@H]1C(=O)N[C@@H](CC(N)=O)C(=O)N[C@@H](CCCNC(=N)N)C(=O)N[C@@H](CCCNC(=N)N)C(=O)N[C@@H](CCCCN)C(=O)N1CCC[C@H]1C(=O)N[C@@H](Cc1c[nH]c2ccccc12)C(=O)N[C@@H](CCCCN)C(=O)N[C@@H](CCCCN)C(N)=O`, for which the values for the inhibition of growth at 25 µM in the assay on Candida albicans [1] and in the assay on Cryptococcus neoformans [5] were 15.4% and 100%, respectively. Besides, the inhibition of growth at 100 µM in the assay with Candida albicans [2] and with Cryptococcus neoformans [7] was 100% each time. Moreover, the results for the inhibition of growth at 12.5 µM with Candida albicans [3] and with Cryptococcus neoformans [11] were 6.1% and 100%, respectively. The inhibition of growth at 200 µM in the assay with Candida albicans [4] and with Cryptococcus neoformans [9] was 100% throughout. The inhibition of growth at 6.25 µM with Candida albicans [6] stood at 0%; with Cryptococcus neoformans [10], 79.9%. Also, the inhibition of growth at 50 µM with Cryptococcus neoformans [8] was 100%; in the assay on Candida albicans [12], 41.4%.

With `C[C@@H]1[C@H](O)[C@@H](C)/C=C/C=C/C=C/C=C/C=C/C=C/C=C/[C@H](O[C@@H]2O[C@H](C)[C@@H](O)[C@H](N)[C@@H]2O)C[C@@H]2O[C@](O)(C[C@@H](O)C[C@@H](O)[C@H](O)CC[C@@H](O)C[C@@H](O)CC(=O)O[C@H]1C)C[C@H](O)[C@H]2C(=O)O` [AMPHOTERICIN B], the inhibition of growth at 25 µM in the assay on Candida albicans [1] and with Cryptococcus neoformans [5] was 100% throughout. The inhibition of growth at 100 µM with Candida albicans [2] and with Cryptococcus neoformans [7] was 100% each time. Besides, the inhibition of growth at 12.5 µM in the assay on Candida albicans [3] and with Cryptococcus neoformans [11] was 100% throughout. For the same molecule, the inhibition of growth at 200 µM with Candida albicans [4] and in the assay on Cryptococcus neoformans [9] was 100% each time. The inhibition of growth at 6.25 µM in the assay on Candida albicans [6] and in the assay with Cryptococcus neoformans [10] was 100% in each case. The inhibition of growth at 50 µM in the assay on Cryptococcus neoformans [8] and in the assay with Candida albicans [12] was 100% in each case.

As for `CC(=O)N1CCN(c2ccc(OCC3COC(Cn4ccnc4)(c4ccc(Cl)cc4Cl)O3)cc2)CC1` (configuration not stated) [KETOCONAZOLE], the inhibition of growth at 25 µM in the assay with Candida albicans [1] and in the assay with Cryptococcus neoformans [5] was 100% each time. In addition, the inhibition of growth at 100 µM in the assay with Candida albicans [2] and in the assay with Cryptococcus neoformans [7] was 100% throughout. Also, the inhibition of growth at 12.5 µM in the assay on Candida albicans [3] and in the assay with Cryptococcus neoformans [11] was 100% throughout. The inhibition of growth at 200 µM in the assay with Candida albicans [4] and with Cryptococcus neoformans [9] was 100% each time. Further, the inhibition of growth at 6.25 µM in the assay on Candida albicans [6] and in the assay on Cryptococcus neoformans [10] was 100% throughout. The inhibition of growth at 50 µM in the assay with Cryptococcus neoformans [8] and with Candida albicans [12] was 100% in each case.

`CC[C@H](C)[C@H](NC(=O)[C@H](CCCCN)NC(=O)[C@@H](NC(=O)[C@H](CCC(N)=O)NC(=O)[C@@H](N)CCCNC(=N)N)[C@@H](C)CC)C(=O)N[C@@H](Cc1c[nH]c2ccccc12)C(=O)N[C@@H](Cc1ccccc1)C(=O)N[C@@H](CCC(N)=O)C(=O)N[C@@H](CC(N)=O)C(=O)N[C@@H](CCCNC(=N)N)C(=O)N[C@@H](CCCNC(=N)N)C(=O)N[C@@H](CCSC)C(=O)N[C@@H](CCCCN)C(=O)N[C@@H](Cc1c[nH]c2ccccc12)C(=O)N[C@@H](CCCCN)C(=O)N[C@@H](CCCCN)C(N)=O` [PENETRATIN]: the results for the inhibition of growth at 25 µM with Candida albicans [1] and in the assay with Cryptococcus neoformans [5] were 91% and 100%, respectively. Also, the inhibition of growth at 100 µM with Candida albicans [2] and in the assay on Cryptococcus neoformans [7] was 100% in each case. Also, the inhibition of growth at 12.5 µM was found to be 4% in the assay with Candida albicans [3] and 90% in the assay on Cryptococcus neoformans [11]. Moreover, the inhibition of growth at 200 µM with Candida albicans [4] and in the assay on Cryptococcus neoformans [9] was 100% throughout. The inhibition of growth at 6.25 µM in the assay on Candida albicans [6] was 0%; in the assay with Cryptococcus neoformans [10], 60%. Also, the inhibition of growth at 50 µM in the assay with Cryptococcus neoformans [8] was 100%; in the assay on Candida albicans [12], 95%.

As to H-KKWKMRRNQFWIKIQR-NH2, the inhibition of growth at 25 µM in the assay on Candida albicans [1] was 25.8%; with Cryptococcus neoformans [5], 94.1%. Moreover, the inhibition of growth at 100 µM in the assay with Candida albicans [2] and in the assay with Cryptococcus neoformans [7] was 100% each time. For the same molecule, the inhibition of growth at 12.5 µM with Candida albicans [3] came out at 12%; with Cryptococcus neoformans [11] it was 89.5%. For the same molecule, the inhibition of growth at 200 µM in the assay with Candida albicans [4] and with Cryptococcus neoformans [9] was 100% each time. The results for the inhibition of growth at 6.25 µM in the assay on Candida albicans [6] and in the assay with Cryptococcus neoformans [10] were 0% and 55.9%, respectively. In addition, the inhibition of growth at 50 µM with Cryptococcus neoformans [8] came to 99%; in the assay with Candida albicans [12], 100%.
